This note sets out measurements from PMC7059199, “Identification and structural insight of an effective PPARγ modulator with improved therapeutic index for anti-diabetic drug discovery” (Chemical Science, 2020).

The test system of the experiment is 3T3-L1 cells. The experiment in a line: qPCR of adipogenic genes in 3T3-L1 cells. In kind it is cell-based, mouse. The settings on record: 7 days after treatment. The method, then:
Encouraged by the above results and to further determine whether VSP-77 activates PPARγ in 3T3-L1 cells, we evaluated the ability of VSP-77 to stimulate PPARγ activity by measuring the mRNA levels of endogenous PPARγ-regulated downstream genes linked to adipogenesis (primers are listed in Table S1 ^†).
Fig. 7 Expression of adipogenic genes in 3T3-L1 cells was analyzed by quantitative PCR (qPCR). Relative mRNA levels of the adipocyte differentiation genes PPARγ, aP2, CD36, LPL, C/EBPα and Fasn. mRNA was extracted from differentiating cells 7 days after treatment (n = 3, error bars = SEM). […]
(average±standard deviation calculated from three separate experiments). […]
Cells were stained with Oil Red O to estimate the lipid accumulation. The images were analyzed using ImageJ (National Institutes of Health).
For real-time PCR analysis, 1-2 μg total RNA was reverse-transcribed using the SuperScript cDNA Reverse Transcription Kit (Invitrogen) with SYBR Green PCR Master Mix (Invitrogen) and gene specific primers (Table S1) using a Roche Light Cycler 480 machine. The relative expression of mRNA was determined after normalization to β-actin level using the ΔΔ-Ct method. […]

Regarding `CCCCCCCC(OCC(=O)O)c1ccc(Cl)cc1` (stereo not shown) [VSP-77], the “expression of adipogenic genes PPARγ, aP2, CD36, LPL, C/EBPα and Fasn (mRNA)” value was “only weakly stimulated”.
